According to patent US5330897A, “Sialic acid binding lectin of protozoan origin” (South Alabama Medical Science Foundation, priority 1992, dated 1994):

Legend:
T. mobilensis lectin = assay: Inhibition of T. mobilensis lectin-mediated hemagglutination; type: biochemical, Tritrichomonas mobilensis; details: for Minimal Inhibitory Conc.: 2 units of hemagglutinin
[1] = system: T. mobilensis cell-free lysate hemagglutinin; assay: Inhibition of HA activity of T. mobilensis cell-free lysate; type: biochemical, Tritrichomonas mobilensis
[2] = system: T. foetus cell-free lysate hemagglutinin; assay: Inhibition of HA activity of T. foetus cell-free lysate; type: biochemical, Tritrichomonas foetus
[3] = system: T. augusta cell-free lysate hemagglutinin; assay: Inhibition of HA activity of T. augusta cell-free lysate; type: biochemical, Tritrichomonas augusta
live T. mobilensis = assay: Slide agglutination of live T. mobilensis by lectins; type: cell-based, Tritrichomonas mobilensis; details: carbohydrate 100 mM
Experimental: Agglutination of live T. mobilensis with lectins with various carbohydrate binding specificities was performed by a slide agglutination assay. Lectin Kit LK-2000 (Vector Laboratories) consisted of the following lectins: concanavalin A (ConA), wheat germ agglutinin (WGA), soybean agglutinin (SBA), gorse seed agglutinin (UEA-1), castor bean agglutinin type 1 (RCA-1), peanut agglutinin (PNA), and horse gram agglutinin (DBA). Limulus polyphemus lectin (LPA) was obtained from Sigma, and Limax flavus (LFA) agglutinin from EY Labs. Lectins and specific carbohydrates were dissolved in buffers recommended by the manufacturers. Twenty five μl of washed T. mobilensis (about 2×10^7 /ml) were placed onto a glass slide. An equal volume of lectin (200 μg/ml) or lectin with specific carbohydrate (final concentration, 100 mM) was added. After mixing for 2 to 3 min, the agglutination was evaluated under a microscope.

live cells of T. foetus = assay: Inhibition of HA by live cells of T. foetus; type: cell-based, Tritrichomonas foetus
[4] = system: T. mobilensis hemolysis of erythrocytes; assay: Whole organism hemolysis assay, inhibition; type: cell-based, Tritrichomonas mobilensis
From the text: Tritrichomonas mobilensis, an enteric parasite of squirrel monkeys, adheres readily to isolated monkey intestinal epithelial cells and agglutinates human erythrocytes in vitro. These activities are mediated by a sialic acid binding lectin. Hemagglutination by either parasites or purified lectin is inhibited by N-acetylneuraminic acid and anti-lectin monoclonal antibody (MAB), but not by 2,3-dehydro-2-desoxy-N-acetylneuraminic acid, a neuraminidase inhibitor. T. mobilensis hemolyzes erythrocytes in a modification of a previously published whole organism hemolysis assay. Hemolysis is inhibited by N-acetylneuraminic acid, 2,3-dehydro-2-desoxy-N-acetylneuraminic acid, anti-lectin MAB, T. mobilensis lectin and other sialic acid binding lectins, fetuin, and colominic acid, but not by asialofetuin, or leupeptin. Desialated erythrocytes are neither agglutinated nor hemolyzed.

OC[C@H]1O[C@H](O[C@H]2[C@H](O)[C@@H](O)C(O)O[C@@H]2CO)[C@H](O)[C@@H](O)[C@@H]1O (mixture of isomers) [Maltose]
Minimal Inhibitory Conc. (T. mobilensis lectin; carbohydrates): > 100 mM

CC(=O)NC1C(O)CC(OC2C(O)C(CO)OC(OC3C(CO)OC(O)C(O)C3O)C2O)(C(=O)O)OC1C(O)C(O)CO (stereo not shown) [3'-sialyllactose]
Minimal Inhibitory Conc. (T. mobilensis lectin; carbohydrates): 2.0 mM

CC(=O)NC1C(O)CC(OCC2OC(OC3C(CO)OC(O)C(O)C3O)C(O)C(O)C2O)(C(=O)O)OC1C(O)C(O)CO (stereo not shown) [6'-sialyllactose]
Minimal Inhibitory Conc. (T. mobilensis lectin; carbohydrates): 1.0 mM

OC1OC[C@@H](O)[C@@H](O)[C@@H]1O (stereo partly drawn) [D-arabinose]
Conc. required to inhibit 2 HA units, T. mobilensis ([1]; carbohydrates, […]): > 200 µg/mL
Conc. required to inhibit 2 HA units, T. foetus ([2]; carbohydrates, […]): > 200 µg/mL
Conc. required to inhibit 2 HA units, T. augusta ([3]; carbohydrates, […]): > 200 µg/mL
Minimal Inhibitory Conc. (T. mobilensis lectin; carbohydrates): > 100 mM

O=C(CO)[C@@H](O)[C@H](O)[C@H](O)CO [D-fructose]
Conc. required to inhibit 2 HA units, T. mobilensis ([1]; carbohydrates, […]): > 200 µg/mL
Conc. required to inhibit 2 HA units, T. foetus ([2]; carbohydrates, […]): > 200 µg/mL
Conc. required to inhibit 2 HA units, T. augusta ([3]; carbohydrates, […]): > 200 µg/mL
Minimal Inhibitory Conc. (T. mobilensis lectin; carbohydrates): > 100 mM

C[C@H]1OC(O)[C@H](O)[C@@H](O)[C@H]1O (stereo partly drawn) [D-fucose]
Conc. required to inhibit 2 HA units, T. mobilensis ([1]; carbohydrates, […]): > 200 µg/mL
Conc. required to inhibit 2 HA units, T. foetus ([2]; carbohydrates, […]): > 200 µg/mL
Conc. required to inhibit 2 HA units, T. augusta ([3]; carbohydrates, […]): > 200 µg/mL
Minimal Inhibitory Conc. (T. mobilensis lectin; carbohydrates): > 100 mM
Effect of specific carbohydrate on agglutinating activity of the appropriate lectin (live T. mobilensis): abolished agglutinating activity

OC[C@H]1OC(O)[C@H](O)[C@@H](O)[C@H]1O (stereo partly drawn) [D-galactose]
Conc. required to inhibit 2 HA units, T. mobilensis ([1]; carbohydrates, […]): > 200 µg/mL
Conc. required to inhibit 2 HA units, T. foetus ([2]; carbohydrates, […]): > 200 µg/mL
Conc. required to inhibit 2 HA units, T. augusta ([3]; carbohydrates, […]): > 200 µg/mL
Minimal Inhibitory Conc. (T. mobilensis lectin; carbohydrates): > 100 mM
Effect of specific carbohydrate on agglutinating activity of the appropriate lectin (live T. mobilensis): abolished agglutinating activity

O=C(O)[C@H]1OC(O)[C@H](O)[C@@H](O)[C@H]1O (stereo partly drawn) [D-galacturonic acid]
Minimal Inhibitory Conc. (T. mobilensis lectin; carbohydrates): > 100 mM

OC[C@H]1OC(O)[C@H](O)[C@@H](O)[C@@H]1O (stereo partly drawn) [D-glucose]
Conc. required to inhibit 2 HA units, T. mobilensis ([1]; carbohydrates, […]): > 200 µg/mL
Conc. required to inhibit 2 HA units, T. foetus ([2]; carbohydrates, […]): > 200 µg/mL
Conc. required to inhibit 2 HA units, T. augusta ([3]; carbohydrates, […]): > 200 µg/mL
Minimal Inhibitory Conc. (T. mobilensis lectin; carbohydrates): > 100 mM

OC[C@H]1OC(O)[C@@H](O)[C@@H](O)[C@@H]1O (stereo partly drawn) [D-mannose]
Conc. required to inhibit 2 HA units, T. mobilensis ([1]; carbohydrates, […]): > 200 µg/mL
Conc. required to inhibit 2 HA units, T. foetus ([2]; carbohydrates, […]): > 200 µg/mL
Conc. required to inhibit 2 HA units, T. augusta ([3]; carbohydrates, […]): > 200 µg/mL
Minimal Inhibitory Conc. (T. mobilensis lectin; carbohydrates): > 100 mM
Effect of specific carbohydrate on agglutinating activity of the appropriate lectin (live T. mobilensis): abolished agglutinating activity

OC1OC[C@@H](O)[C@H](O)[C@H]1O (stereo partly drawn) [D-xylose]
Conc. required to inhibit 2 HA units, T. mobilensis ([1]; carbohydrates, […]): > 200 µg/mL
Conc. required to inhibit 2 HA units, T. foetus ([2]; carbohydrates, […]): > 200 µg/mL
Conc. required to inhibit 2 HA units, T. augusta ([3]; carbohydrates, […]): > 200 µg/mL
Minimal Inhibitory Conc. (T. mobilensis lectin; carbohydrates): > 100 mM

O=P(O)(O)OC[C@H]1OC(O)[C@@H](O)[C@@H](O)[C@@H]1O (stereo partly shown) [Mannose-6-phosphate]
Minimal Inhibitory Conc. (T. mobilensis lectin; carbohydrates): > 100 mM

CC(=O)N[C@H]1[C@H](O[C@H]2[C@H](O)[C@@H](NC(C)=O)C(O)O[C@@H]2CO)O[C@H](CO)[C@@H](O)[C@@H]1O (stereo partly shown) [N,N-diacetyl chitobiose]
Minimal Inhibitory Conc. (T. mobilensis lectin; carbohydrates): > 100 mM

CC(=O)N[C@H]1[C@@H](O)[C@H](O)[C@@H](CO)O[C@H]1O [N-acetyl-β-D-mannosamine]
Minimal Inhibitory Conc. (T. mobilensis lectin; carbohydrates): > 100 mM

CC(=O)N[C@H]1C(O)O[C@H](CO)[C@H](O)[C@@H]1O (stereo partly shown) [N-acetylgalactosamine]
Conc. required to inhibit 2 HA units, T. mobilensis ([1]; carbohydrates, […]): > 200 µg/mL
Conc. required to inhibit 2 HA units, T. foetus ([2]; carbohydrates, […]): > 200 µg/mL
Conc. required to inhibit 2 HA units, T. augusta ([3]; carbohydrates, […]): > 200 µg/mL
Minimal Inhibitory Conc. (T. mobilensis lectin; carbohydrates): > 100 mM
Effect of specific carbohydrate on agglutinating activity of the appropriate lectin (live T. mobilensis): abolished agglutinating activity

CC(=O)N[C@H]1C(O)O[C@H](CO)[C@@H](O)[C@@H]1O (stereo partly shown) [N-acetylglucosamine]
Conc. required to inhibit 2 HA units, T. mobilensis ([1]; carbohydrates, […]): > 200 µg/mL
Conc. required to inhibit 2 HA units, T. foetus ([2]; carbohydrates, […]): > 200 µg/mL
Conc. required to inhibit 2 HA units, T. augusta ([3]; carbohydrates, […]): > 200 µg/mL
Minimal Inhibitory Conc. (T. mobilensis lectin; carbohydrates): > 100 mM
Effect of specific carbohydrate on agglutinating activity of the appropriate lectin (live T. mobilensis): abolished agglutinating activity

CC(=O)N[C@H]1C(O)O[C@H](CO)[C@@H](O)[C@@H]1O[C@H](C)C(=O)O (stereo partly shown) [N-acetylmuramic acid]
Minimal Inhibitory Conc. (T. mobilensis lectin; carbohydrates): > 100 mM

COC1(C(=O)O)CC(O)C(NC(C)=O)C(C(O)C(O)CO)O1 (stereo not drawn) [N-acetylneruaminic acid β-methyl glycoside]
Minimal Inhibitory Conc. (T. mobilensis lectin; carbohydrates): > 100 mM

COC(=O)C1(OC)CC(O)C(NC(C)=O)C(C(O)C(O)CO)O1 (stereo not drawn) [N-acetylneuraminic acid methyl ester, β-methyl glycoside]
Minimal Inhibitory Conc. (T. mobilensis lectin; carbohydrates): > 100 mM

OC[C@H]1O[C@@](CO)(O[C@H]2O[C@H](CO)[C@@H](O)[C@H](O)[C@H]2O)[C@@H](O)[C@@H]1O [Sucrose]
Conc. required to inhibit 2 HA units, T. mobilensis ([1]; carbohydrates, […]): > 200 µg/mL
Conc. required to inhibit 2 HA units, T. foetus ([2]; carbohydrates, […]): > 200 µg/mL
Conc. required to inhibit 2 HA units, T. augusta ([3]; carbohydrates, […]): > 200 µg/mL
Minimal Inhibitory Conc. (T. mobilensis lectin; carbohydrates): > 100 mM

O=P(O)(O)OC1O[C@H](CO)[C@@H](O)[C@H](O)[C@@H]1O (stereo partly shown) [mannose-1-phosphate]
Minimal Inhibitory Conc. (T. mobilensis lectin; carbohydrates): > 100 mM

Avidin: glycoprotein or protein tested as inhibitor
Minimal Inhibitory Conc. (T. mobilensis lectin; glycoproteins or proteins): > 1000 µg/mL

Bovine Albumin: glycoprotein or protein tested as inhibitor
Minimal Inhibitory Conc. (T. mobilensis lectin; glycoproteins or proteins): > 1000 µg/mL

Bovine submaxillary mucin
Conc. required to inhibit 2 HA units, T. mobilensis ([1]; sialoglycoproteins): 60 µg/mL
Conc. required to inhibit 2 HA units, T. foetus ([2]; sialoglycoproteins): 60 µg/mL
Conc. required to inhibit 2 HA units, T. augusta ([3]; sialoglycoproteins): 40 µg/mL
Conc. required to Inhibit 2 HA Units (live cells of T. foetus): 125 µg/mL
Minimal Inhibitory Conc. (T. mobilensis lectin; glycoproteins or proteins): 0.65 µg/mL

Egg Albumin: glycoprotein or protein tested as inhibitor
Minimal Inhibitory Conc. (T. mobilensis lectin; glycoproteins or proteins): > 1000 µg/mL

Fibronectin
Minimal Inhibitory Conc. (T. mobilensis lectin; glycoproteins or proteins): > 333 µg/mL

GD1A
Inhibition of hemagglutination by gangliosides (T. mobilensis lectin; at mg/ml concentrations): did not inhibit

Laminin
Minimal Inhibitory Conc. (T. mobilensis lectin; glycoproteins or proteins): 6.8 µg/mL

Lysozyme: glycoprotein or protein tested as inhibitor
Minimal Inhibitory Conc. (T. mobilensis lectin; glycoproteins or proteins): > 1000 µg/mL

Orosomucoid: sialoconjugate (sialoglycoprotein)
Conc. required to inhibit 2 HA units, T. mobilensis ([1]; sialoglycoproteins): 150 µg/mL
Conc. required to inhibit 2 HA units, T. foetus ([2]; sialoglycoproteins): 150 µg/mL
Conc. required to inhibit 2 HA units, T. augusta ([3]; sialoglycoproteins): 150 µg/mL
Conc. required to Inhibit 2 HA Units (live cells of T. foetus): 500 µg/mL

colominic acid
Inhibition of hemolysis [4]: inhibited

glucuronic acid
Minimal Inhibitory Conc. (T. mobilensis lectin; carbohydrates): > 100 mM

B1: Asialofetuin: asialo- analog of fetuin (protein, UniProt P12763 19-359, looked up)
Alpha-2-HS-glycoprotein: IPLDPVAGYKEPACDDPDTEQAALAAVDYINKHLPRGYKHTLNQIDSVKVWPRRPTGEVYDIEIDTLETTCHVLDPTPLANCSVRQQTQHAVEGDCDIHVLKQDGQFSVLFTKCDSSPDSAEDVRKLCPDCPLLAPLNDSRVVHAVEVALATFNAESNGSYLQLVEISRAQFVPLPVSVSVEFAVAATDCIAKEVVDPTKCNLLAEKQYGFCKGSVIQKALGGEDVRVTCTLFQTQPVIPQPQPDGAEAEAPSAVPDAAGPTPSAAGPPVASVVVGPSVVAVPLPLHRAHYDLRHTFSGVASVESSSGEAFHVGKTPIVGQPSIPGGPVRLCPGRIRYFKI
modifications: desialylated
notes: asialo- analog of fetuin
Minimal Inhibitory Conc. (T. mobilensis lectin; glycoproteins or proteins): 26.0 µg/mL

B2: Glycophorin: a major sialoglycoprotein of erythrocyte membranes (protein, UniProt P02724 20-150, looked up)
Glycophorin-A: LSTTEVAMHTSTSSSVTKSYISSQTNDTHKRDTYAATPRAHEVSEISVRTVYPPEEETGERVQLAHHFSEPEITLIIFGVMAGVIGTILLISYGIRRLIKKSPSDVKPLPSPDTDVPLSSVEIENPETSDQ
Conc. required to inhibit 2 HA units, T. mobilensis ([1]; sialoglycoproteins): 10 µg/mL
Conc. required to inhibit 2 HA units, T. foetus ([2]; sialoglycoproteins): 10 µg/mL
Conc. required to inhibit 2 HA units, T. augusta ([3]; sialoglycoproteins): 10 µg/mL
Conc. required to Inhibit 2 HA Units (live cells of T. foetus): 10 µg/mL
Minimal Inhibitory Conc. (T. mobilensis lectin; glycoproteins or proteins): 0.42 µg/mL

B3: Asialoglycophorin: glycophorin lacking the sialic acid (protein, UniProt P02724 20-150, looked up)
Glycophorin-A: B2 Glycophorin-A
modifications: desialylated
notes: glycophorin lacking the sialic acid
Conc. required to inhibit 2 HA units, T. mobilensis ([1]; sialoglycoproteins): 500 µg/mL
Conc. required to inhibit 2 HA units, T. foetus ([2]; sialoglycoproteins): 500 µg/mL
Conc. required to inhibit 2 HA units, T. augusta ([3]; sialoglycoproteins): 500 µg/mL
Conc. required to Inhibit 2 HA Units (live cells of T. foetus): 500 µg/mL
Minimal Inhibitory Conc. (T. mobilensis lectin; glycoproteins or proteins): 83.3 µg/mL
